In ChEMBL document CHEMBL3407404, “Cyclopentyl-pyrimidine based analogues as novel and potent IGF-1R inhibitor” (Eur J Med Chem, 2015):

Tests used:
[1] = molecular target: Insulin-like growth factor 1 receptor (Homo sapiens, UniProt P08069); assay: Inhibition of IGF1R (unknown origin) using poly-G1 as substrate incubated for 10 mins prior to substrate addition measured after 1 hr by time-resolved fluorescence assay
[2] = Half life in Sprague-Dawley rat at 10 mg/kg, po; assay type: ADME, organism-based; set-up: dose 10 mg/kg, route oral; settings: in vivo
[3] = Half life in Sprague-Dawley rat at 2 mg/kg, iv; assay type: ADME, organism-based; set-up: dose 2 mg/kg, route intravenous; settings: in vivo
[4] = Volume of distribution at steady state in Sprague-Dawley rat at 2 mg/kg, iv; assay type: ADME, organism-based; set-up: dose 2 mg/kg, route intravenous; settings: in vivo, read-out: Vdss
[5] = system: MCF7; assay: Growth inhibition of human MCF7 cells after 48 hrs by propidium iodide staining-based fluorescence assay; assay type: functional, cell-based; settings: MCF7, 48 h
[6] = Growth inhibition of human HCT116 cells after 48 hrs by propidium iodide staining-based fluorescence assay; assay type: functional, cell-based; settings: HCT-116, 48 h
[7] = Clearance in Sprague-Dawley rat at 2 mg/kg, iv; assay type: ADME, organism-based; set-up: dose 2 mg/kg, route intravenous; settings: in vivo
[8] = system: A-431; assay: Growth inhibition of human A431 cells after 48 hrs by propidium iodide staining-based fluorescence assay; assay type: functional, cell-based; settings: A-431, 48 h
[9] = Initial concentration in Sprague-Dawley rat at 2 mg/kg, iv; assay type: ADME, organism-based; set-up: dose 2 mg/kg, route intravenous; settings: in vivo
[10] = Growth inhibition of human H460 cells after 48 hrs by propidium iodide staining-based fluorescence assay; assay type: functional, cell-based; settings: NCI-H460, 48 h
[11] = Oral bioavailability in Sprague-Dawley rat at 10 mg/kg; assay type: ADME, organism-based; settings: in vivo
[12] = system: NCI-H1975; assay: Growth inhibition of human NCI-H1975 cells after 48 hrs by propidium iodide staining-based fluorescence assay; assay type: functional, cell-based; settings: NCI-H1975, 48 h
[13] = molecular target: Insulin receptor (Homo sapiens, UniProt P06213); assay: Inhibition of IR (unknown origin) using poly-G1 as substrate incubated for 10 mins prior to substrate addition measured after 1 hr by time-resolved fluorescence assay
[14] = system: MDA-MB-231; assay: Growth inhibition of human MDA-MB-231 cells after 48 hrs by propidium iodide staining-based fluorescence assay; assay type: functional, cell-based; settings: MDA-MB-231, 48 h
[15] = Growth inhibition of human COLO205 cells after 48 hrs by propidium iodide staining-based fluorescence assay; assay type: functional, cell-based; settings: COLO 205, 48 h

Sequence of Insulin-like growth factor 1 receptor (P08069 31-736 limits assumed): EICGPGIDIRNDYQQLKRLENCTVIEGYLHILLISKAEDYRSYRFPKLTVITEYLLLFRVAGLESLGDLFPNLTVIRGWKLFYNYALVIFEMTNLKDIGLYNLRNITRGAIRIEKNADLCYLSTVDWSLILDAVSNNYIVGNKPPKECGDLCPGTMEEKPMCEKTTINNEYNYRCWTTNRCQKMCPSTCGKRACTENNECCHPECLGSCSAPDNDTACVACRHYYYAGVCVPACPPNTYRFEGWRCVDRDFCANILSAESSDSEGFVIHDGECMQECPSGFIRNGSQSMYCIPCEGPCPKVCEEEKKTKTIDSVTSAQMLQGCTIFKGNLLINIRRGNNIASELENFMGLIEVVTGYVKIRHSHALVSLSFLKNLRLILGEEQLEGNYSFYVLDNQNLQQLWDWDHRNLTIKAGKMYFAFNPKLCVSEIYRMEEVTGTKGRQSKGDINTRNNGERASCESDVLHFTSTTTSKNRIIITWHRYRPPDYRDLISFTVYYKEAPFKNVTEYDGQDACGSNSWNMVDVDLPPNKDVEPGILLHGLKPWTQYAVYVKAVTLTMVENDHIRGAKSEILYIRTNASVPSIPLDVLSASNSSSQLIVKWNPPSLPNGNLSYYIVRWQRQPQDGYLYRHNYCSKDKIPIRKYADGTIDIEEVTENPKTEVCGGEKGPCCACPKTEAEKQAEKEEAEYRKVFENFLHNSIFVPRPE
Sequence of Insulin-like growth factor 1 receptor (P08069 741-1367 limits assumed): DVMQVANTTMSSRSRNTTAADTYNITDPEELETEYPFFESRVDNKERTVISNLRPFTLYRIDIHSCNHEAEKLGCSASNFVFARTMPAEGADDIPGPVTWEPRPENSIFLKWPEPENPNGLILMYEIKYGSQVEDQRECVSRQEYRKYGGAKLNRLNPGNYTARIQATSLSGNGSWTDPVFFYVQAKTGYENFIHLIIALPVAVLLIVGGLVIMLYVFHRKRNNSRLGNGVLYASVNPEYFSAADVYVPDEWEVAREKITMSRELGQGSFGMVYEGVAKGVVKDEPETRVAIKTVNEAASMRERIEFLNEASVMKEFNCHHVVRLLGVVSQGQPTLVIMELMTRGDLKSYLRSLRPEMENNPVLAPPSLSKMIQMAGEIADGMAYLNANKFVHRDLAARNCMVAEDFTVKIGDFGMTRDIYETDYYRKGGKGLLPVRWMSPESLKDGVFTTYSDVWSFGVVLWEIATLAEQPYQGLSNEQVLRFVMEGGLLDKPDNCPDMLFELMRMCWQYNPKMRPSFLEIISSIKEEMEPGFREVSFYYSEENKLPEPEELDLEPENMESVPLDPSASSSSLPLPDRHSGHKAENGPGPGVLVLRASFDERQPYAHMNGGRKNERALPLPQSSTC
Sequence of Insulin receptor (P06213 28-758 limits assumed): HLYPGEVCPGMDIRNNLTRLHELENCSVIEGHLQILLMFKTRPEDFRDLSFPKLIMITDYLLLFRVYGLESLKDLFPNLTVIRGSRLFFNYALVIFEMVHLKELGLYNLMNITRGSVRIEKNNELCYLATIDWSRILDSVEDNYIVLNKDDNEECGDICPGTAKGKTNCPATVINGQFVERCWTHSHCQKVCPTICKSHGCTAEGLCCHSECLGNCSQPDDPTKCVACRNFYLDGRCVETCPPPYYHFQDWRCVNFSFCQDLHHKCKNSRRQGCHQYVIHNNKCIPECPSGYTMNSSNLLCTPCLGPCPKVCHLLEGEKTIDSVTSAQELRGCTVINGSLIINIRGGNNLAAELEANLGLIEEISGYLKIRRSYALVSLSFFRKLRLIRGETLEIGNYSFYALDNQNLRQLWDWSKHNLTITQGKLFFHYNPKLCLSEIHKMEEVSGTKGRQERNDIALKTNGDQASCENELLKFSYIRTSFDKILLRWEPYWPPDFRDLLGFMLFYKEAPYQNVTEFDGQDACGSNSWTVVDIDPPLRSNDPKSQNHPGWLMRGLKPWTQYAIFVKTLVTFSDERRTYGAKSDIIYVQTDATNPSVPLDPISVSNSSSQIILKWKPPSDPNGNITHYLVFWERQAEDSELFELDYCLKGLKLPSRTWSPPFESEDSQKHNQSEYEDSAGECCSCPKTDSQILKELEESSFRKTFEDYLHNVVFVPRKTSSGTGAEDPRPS
Sequence of Insulin receptor (P06213 763-1382 limits assumed): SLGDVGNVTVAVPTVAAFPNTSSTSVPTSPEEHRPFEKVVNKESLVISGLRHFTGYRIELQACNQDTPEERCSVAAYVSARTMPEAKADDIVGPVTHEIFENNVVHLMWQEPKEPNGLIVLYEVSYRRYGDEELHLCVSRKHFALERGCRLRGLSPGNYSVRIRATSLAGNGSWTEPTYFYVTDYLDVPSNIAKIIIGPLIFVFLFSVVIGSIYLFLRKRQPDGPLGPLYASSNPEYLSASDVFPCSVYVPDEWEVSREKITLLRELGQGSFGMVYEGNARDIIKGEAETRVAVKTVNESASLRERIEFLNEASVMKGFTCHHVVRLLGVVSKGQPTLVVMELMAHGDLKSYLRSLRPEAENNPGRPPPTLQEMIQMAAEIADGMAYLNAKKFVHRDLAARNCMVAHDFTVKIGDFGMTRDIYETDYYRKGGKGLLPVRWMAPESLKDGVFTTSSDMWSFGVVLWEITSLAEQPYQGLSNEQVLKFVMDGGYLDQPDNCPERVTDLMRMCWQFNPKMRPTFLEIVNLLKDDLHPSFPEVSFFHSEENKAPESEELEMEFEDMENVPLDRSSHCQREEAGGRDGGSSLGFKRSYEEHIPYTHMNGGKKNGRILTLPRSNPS

c1ccc(-c2cc(Nc3nc(N4CCCCCC4)nc4c3CCC4)n[nH]2)cc1
IC50 ([1]; read-out: IC50): > 1000 nM

CC1CCN(c2nc3c(c(Nc4cc(C(C)(C)C)[nH]n4)n2)CCC3)CC1
IC50 ([1]; read-out: IC50): 300 nM

CCN(CC)C(=O)C1CCCN(c2nc3c(c(Nc4cc(C5CC5)[nH]n4)n2)CCC3)C1 (centres undefined)
IC50 ([1]; read-out: IC50): 184 nM

Cc1cc(Nc2nc(N3CCC(C)CC3)nc3c2CCC3)n[nH]1
IC50 [1]: Not Active

OCC1CCCN(c2nc3c(c(Nc4cc(C5CC5)[nH]n4)n2)CCC3)C1 (centres undefined)
IC50 ([1]; read-out: IC50): 90 nM

CN(C)CCN(C)c1nc2c(c(Nc3cc(C4CC4)[nH]n3)n1)CCC2
IC50 ([1]; read-out: IC50): > 1000 nM

O=C(O)C1CCN(c2nc3c(c(Nc4cc(C5CC5)[nH]n4)n2)CCC3)CC1
IC50 ([1]; read-out: IC50): > 1000 nM

CC1CCN(c2nc(Nc3cc(C4CC4)[nH]n3)c3c(n2)C2CCC3C2)CC1 (centres undefined)
IC50 ([1]; read-out: IC50): 1190 nM

c1c(Nc2nc(N3CCNCC3)nc3c2CCC3)n[nH]c1C1CC1
IC50 ([1]; read-out: IC50): > 1000 nM

Cc1cc(Nc2nc(N3CCCCCC3)nc3c2CCC3)n[nH]1
IC50 ([1]; read-out: IC50): 2000 nM

c1ccc(CNc2nc3c(c(Nc4cc(C5CC5)[nH]n4)n2)CCC3)cc1
IC50 ([1]; read-out: IC50): 267 nM

CC1(C)CCN(c2nc3c(c(Nc4cc(C5CC5)[nH]n4)n2)CCC3)CC1
IC50 ([1]; read-out: IC50): 203 nM

CC(C)(C)c1cc(Nc2nc(N3CCCCC3)nc3c2CCC3)n[nH]1
IC50 ([1]; read-out: IC50): 251 nM

N#CC1CCN(c2nc3c(c(Nc4cc(C5CC5)[nH]n4)n2)CCC3)CC1
IC50 ([1]; read-out: IC50): 124 nM

Cc1ccc(CNc2nc3c(c(Nc4cc(C5CC5)[nH]n4)n2)CCC3)cc1
IC50 ([1]; read-out: IC50): 149 nM

CC1CCN(c2nc(Nc3cc(C4CC4)[nH]n3)c3c(n2)C(C)(C)CC3)CC1
IC50 ([1]; read-out: IC50): 1500 nM

c1ccc(-c2nc3c(c(Nc4cc(C5CC5)[nH]n4)n2)CCC3)cc1
IC50 ([1]; read-out: IC50): 97 nM

CCOC(=O)C1CCCN(c2nc3c(c(Nc4cc(C(C)(C)C)[nH]n4)n2)CCC3)C1 (centres undefined)
IC50 ([1]; read-out: IC50): 108 nM

CC1CCN(c2nc(Nc3cc(C4CC4)[nH]n3)c3c(n2)C2(CCCC2)CC3)CC1
IC50 ([1]; read-out: IC50): 2800 nM

CC1CCN(c2nc3c(c(Nc4cc(-c5ccccc5)[nH]n4)n2)CCC3)CC1
IC50 ([1]; read-out: IC50): > 1000 nM

CCOC(=O)C1CCCN(c2nc3c(c(Nc4cc(C)[nH]n4)n2)CCC3)C1 (centres undefined)
IC50 ([1]; read-out: IC50): 970 nM

c1c(Nc2nc(N3CCCCC3)nc3c2CCC3)n[nH]c1C1CC1
IC50 ([1]; read-out: IC50): 32 nM

c1c(Nc2nc(N3CCCCCC3)nc3c2CCC3)n[nH]c1C1CC1
IC50 ([1]; read-out: IC50): 10 nM

c1c(Nc2nc(N3CC4CCC3C4)nc3c2CCC3)n[nH]c1C1CC1 (centres undefined)
IC50 ([1]; read-out: IC50): 41 nM

CCOC(=O)C1CCN(c2nc3c(c(Nc4cc(C5CC5)[nH]n4)n2)CCC3)CC1
IC50 ([1]; read-out: IC50): 35 nM

CC1CCN(c2nc3c(c(Nc4cc(C5CC5)[nH]n4)n2)CCC3)CC1
half-life [2]: 52.2 min
half-life [3]: 51 min
Vd [4]: 4.37 L/kg
IC50 [5]: 1670 nM
IC50 [6]: 350 nM
clearance [7]: 59.1 mL/min/kg
IC50 [8]: 340 nM
C0 [9]: 1050 ng/mL
IC50 [10]: 180 nM
IC50 ([1]; read-out: IC50): 20 nM
bioavailability [11]: 11.3%
IC50 [12]: 3000 nM
IC50 [13]: 110 nM
IC50 [14]: 700 nM
IC50 [15]: 2190 nM

Cc1cc(Nc2nc(N3CCCCC3)nc3c2CCC3)n[nH]1
IC50 ([1]; read-out: IC50): 442 nM

CC1CCN(c2nc(Nc3cc(C4CC4)[nH]n3)c3c(n2)C(F)(F)CC3)CC1
IC50 ([1]; read-out: IC50): 786 nM

CC(C)(C)c1cc(Nc2nc(N3CCCCCC3)nc3c2CCC3)n[nH]1
IC50 ([1]; read-out: IC50): 568 nM

c1c(Nc2nc(N3CCCCCCC3)nc3c2CCC3)n[nH]c1C1CC1
IC50 ([1]; read-out: IC50): 58 nM
